# Laboratory results reported in ChEMBL document CHEMBL1130437, “Discovery of selective dopamine D4 receptor antagonists: 1-Aryloxy-3-(4-aryloxypiperidinyl)-2-propanols” (Bioorg Med Chem Lett, 1997).
# Legend:
# Format in all cases: cell-based
# D(4) dopamine receptor = target: T1, D(4) dopamine receptor (Homo sapiens, UniProt P21917); assay: Binding affinity against human cloned D4 receptor transfected in CHO-K1 cells by [3H]- spiperone displacement.
# T1 sequence (P21917 whole entry): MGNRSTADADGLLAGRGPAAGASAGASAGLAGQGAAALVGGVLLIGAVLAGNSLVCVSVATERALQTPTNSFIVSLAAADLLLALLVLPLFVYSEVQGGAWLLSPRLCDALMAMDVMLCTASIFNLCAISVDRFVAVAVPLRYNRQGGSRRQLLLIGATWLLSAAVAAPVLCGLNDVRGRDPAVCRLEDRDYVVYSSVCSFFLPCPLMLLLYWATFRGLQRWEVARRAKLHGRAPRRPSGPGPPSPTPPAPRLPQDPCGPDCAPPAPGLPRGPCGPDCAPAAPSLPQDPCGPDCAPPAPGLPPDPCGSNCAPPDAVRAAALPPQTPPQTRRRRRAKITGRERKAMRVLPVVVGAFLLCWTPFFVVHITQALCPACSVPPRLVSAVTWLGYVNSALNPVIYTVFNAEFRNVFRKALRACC
# D(2) dopamine receptor = D(2) dopamine receptor (Homo sapiens, UniProt P14416); assay: Binding affinity against cloned human D2 receptor transfected in CHO-K1 cells using [3H]- spiperone as radioligand.
# D(3) dopamine receptor = D(3) dopamine receptor (Homo sapiens, UniProt P35462); assay: Binding affinity against cloned human D3 receptor transfected in CHO-K1 cells using [3H]- spiperone as radioligand.
# D(3) dopamine receptor, sequence (P35462 whole entry): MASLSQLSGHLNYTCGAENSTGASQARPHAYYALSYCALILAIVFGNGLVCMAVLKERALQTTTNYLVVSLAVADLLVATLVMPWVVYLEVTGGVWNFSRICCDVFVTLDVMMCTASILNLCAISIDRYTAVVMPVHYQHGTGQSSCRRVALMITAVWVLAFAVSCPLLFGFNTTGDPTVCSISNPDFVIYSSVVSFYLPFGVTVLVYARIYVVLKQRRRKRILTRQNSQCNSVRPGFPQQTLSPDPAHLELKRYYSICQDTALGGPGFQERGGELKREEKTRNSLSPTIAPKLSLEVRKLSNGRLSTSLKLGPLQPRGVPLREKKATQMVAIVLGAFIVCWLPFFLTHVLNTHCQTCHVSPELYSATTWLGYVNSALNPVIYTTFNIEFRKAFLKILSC
# D(2) dopamine receptor, sequence (P14416 whole entry): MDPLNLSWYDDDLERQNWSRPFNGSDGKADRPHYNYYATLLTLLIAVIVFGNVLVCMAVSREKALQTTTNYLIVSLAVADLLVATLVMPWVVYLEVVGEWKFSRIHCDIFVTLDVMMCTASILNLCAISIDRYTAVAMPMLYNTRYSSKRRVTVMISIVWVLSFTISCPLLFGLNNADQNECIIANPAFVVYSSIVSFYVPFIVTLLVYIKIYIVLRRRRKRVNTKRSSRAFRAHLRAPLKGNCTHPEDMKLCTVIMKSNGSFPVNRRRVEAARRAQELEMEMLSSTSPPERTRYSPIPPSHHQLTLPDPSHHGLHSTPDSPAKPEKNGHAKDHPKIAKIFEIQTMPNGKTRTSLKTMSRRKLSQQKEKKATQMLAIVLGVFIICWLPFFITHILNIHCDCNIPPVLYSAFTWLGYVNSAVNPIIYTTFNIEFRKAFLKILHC
Compound,Ki (D(4) dopamine receptor) [nM],Ki (D(2) dopamine receptor) [nM],Ki (D(3) dopamine receptor) [nM]
O[C@H](COc1ccccc1)CN1CCC(Oc2ccccc2)CC1,11.6,709,457
COC(COc1cccc2ccccc12)CN1CCC(Cc2ccccc2)CC1 (stereo not given),45,,
Cc1ccc(CC2CCN(CC(O)COc3cccc4ccccc34)CC2)cc1 (stereo not given),52,,
OC(COc1ccccc1)CN1CCC(Cc2ccccc2)CC1 (stereo not given),34,,
CC(COc1cccc2ccccc12)CN1CCC(Cc2ccccc2)CC1 (stereo not given),72,,
OC(COc1cccc2ccccc12)CN1CCC(Cc2ccc(F)cc2)CC1 (stereo not given),32,,
OC(COc1cccc2ccccc12)CN1CCC(Oc2ccccc2)CC1 (stereo not given),18,2340,
OC(COc1cccc2ccccc12)CN1CCC(Cc2ccc(Cl)cc2)CC1 (stereo not given),45,,
OC(COc1cccc2ccccc12)CN1CCC(Sc2ccccc2)CC1 (stereo not given),32,,
O=[N+]([O-])c1ccc(OCC(O)CN2CCC(Cc3ccccc3)CC2)cc1 (stereo not given),59,,
COc1ccc(OCC(O)CN2CCC(Cc3ccccc3)CC2)cc1 (stereo not given),123,,
OC(COc1ccc(Cl)cc1)CN1CCC(Cc2ccccc2)CC1 (stereo not given),18,,
COc1ccc(CC2CCN(CC(O)COc3cccc4ccccc34)CC2)cc1 (stereo not given),74,,
O[C@@H](COc1ccccc1)CN1CCC(Oc2ccccc2)CC1,2,244,220
c1ccc(CC2CCN(CCCOc3cccc4ccccc34)CC2)cc1,50,,
OC(COc1cccc2ccccc12)CN1CCC(Cc2ccccc2)CC1 (stereo not given),26,1440,
OC(COc1ccccc1)CN1CCC(Oc2ccccc2)CC1 (racemic),3.6,911,537
